Earlier results on 1 compound are cited in patent publication US20160184299A1, “COMBINATION COMPOSITION COMPRISING OXYCODONE AND ACETAMINOPHEN FOR RAPID ONSET AND EXTENDED DURATION OF ANALGESIA” (MALLINCKRODT LLC, priority 2011, published 2016).

Structures are written as SMILES.

The test system of the data set is hepatic GSH. Particulars: mice, cited from earlier work.

Consider `CC(=O)Nc1ccc(O)cc1` [acetaminophen], for which the “Time to onset of circulating hepatic GSH changes after administration” value (100 mg/kg to 600 mg/kg) was no more than 15 min. Further, the “Time of minimum GSH level after injection” value (all dose groups) is 2 h.
